The text below walks through data of patent publication US10329309B2, “3-(3H-imidazo[4,5-B]pyridin-2-yl)-1H-pyrazolo[4,3-B]pyridines and therapeutic uses thereof” (Samumed, LLC, priority 2015, dated 2019).

Common to all, as to type: cell-based
One experiment has as its system SW480 colon cancer cells. In words: Cell viability assay (CellTiter-Blue), four days. Conditions: Homo sapiens, 96 h; for EC50: CellTiter-Blue cell viability; for inhibition at 10 µM: read-out: percent inhibition at 10 μM (given for EC50 of >10 μM). The method in brief: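 Approximately 2×10^3 SW480 cells per well are seeded with compound (8 points, threefold steps, top 10 μM) and incubated four days at 37 °C. CellTiter-Blue is then added for about 3 h and fluorescence read. Non-linear regression gives EC50; for values beyond 10 μM, percent inhibition at that concentration is listed.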

For experiment [1], the system named is primary human mesenchymal stem cells (hMSCs). Nature of the experiment: Induction of chondrogenesis in primary human mesenchymal stem cells (nodule imaging, Rhodamine B/Nile Red). Conditions: hMSC chondrogenesis; for Emax: TGF-β3 as positive control, read-out: Max. Activity as % TGF-β3 activity; for EC50: concentration required to induce 50% levels of chondrogenesis vs TGF-β3, read-out: Conc (nM) of 50% TGF-β3 activity. As to the method:
Representative compounds were screened using primary human mesenchymal stem cells (hMSCs) to determine their ability to induce chondrogenesis (process by which cartilage is developed).
Primary human mesenchymal stem cells (hMSCs) were purchased from Lonza (Walkersville, Md.) and expanded in Mesenchymal Stem Cell Growth Media (Lonza). Cells between passage 3 and 6 were used for the experiments.
Each compound was dissolved in DMSO as a 10 mM stock and used to prepare compound source plates. For the 96 well assay, serial dilution (1:3, 6-point dose-response curves from 2700 nM to 10 nM) and compound transfer was performed using the ECHO 550 (Labcyte, Sunnyvale, Calif.) into 96-well clear bottom assay plates (Greiner Bio-One) with appropriate DMSO backfill for a final DMSO concentration of 0.03%. hMSCs were plated at 20,000 cells/well in 250 μL/well Incomplete Chondrogenic Induction Medium (Lonza; DMEM, dexamethasone, ascorbate, insulin-transferrin-selenium [ITS supplement], gentamycin-amphotericin [GA-1000], sodium pyruvate, proline and L-glutamine). TGF-−3 (10 ng/mL) was used as a positive control for differentiation while negative control wells were treated with 75 nL DMSO for normalization and calculating EC50 values. For the 384 well assay, serial dilution (1:3, 8-point dose-response curves from 5000 nM to 2.2 nM) and compound transfer was performed using the ECHO 550 (Labcyte, Sunnyvale, Calif.) into 384-well clear bottom assay plates (Greiner Bio-One) with appropriate DMSO backfill for a final DMSO concentration of 0.03%. hMSCs were plated at 8,000 cells/well in 80 μL/well Incomplete Chondrogenic Induction Medium (Lonza; DMEM, dexamethasone, ascorbate, insulin-transferrin-selenium [ITS supplement], gentamycin-amphotericin [GA-1000], sodium pyruvate, proline and L-glutamine). TGF-β3 (10 ng/mL) was used as a positive control for differentiation while negative control wells were treated with 25 nL DMSO for normalization and calculating EC50 values. Cells were incubated at 37° C. and 5% CO2 for 6 days. To image chondrogenic nodules, the cells were fixed using 4% formaldehyde (Electron Microscopy Sciences), and stained with 2 μg/mL Rhodamine B (Sigma-Aldrich) and 20 μM Nile Red (Sigma-Aldrich) [Johnson K., et. al, A Stem Cell-Based Approach to Cartilage Repair, Science, (2012), 336(6082), 717-721]. The nodules imaged (25 images per well for 96 well plates and 9 images per well for 384 well plates at 10× magnification) by excitation at 531 nm and emission at 625 nm and quantified using the CellInsight CX5 (Thermo Scientific). Area of nodules in each well was normalized to the average of 3 DMSO treated wells on the same plate using Excel (Microsoft Inc.). The normalized averages (fold change over DMSO) of 2 or 3 replicate wells for each compound concentration were calculated. Due to solubility limitations of some of the compounds, curve fitting was incomplete leading to inaccurate EC50 determinations.
Using TGF-β3 as a positive control, the concentration of representative compounds required to induce 50% levels of chondrogenesis is reported. In addition, the maximum activity of each compound and the respective dose that each compound reached maximum chondrogenesis activity is reported.

Experiment [2] relates to Wnt activity (Sp5-Luc reporter, SW480 colon carcinoma cells). Nature of the experiment: Screening assay for Wnt activity: Sp5-Luc reporter gene assay in SW480 cells. The settings on record: Homo sapiens, overnight incubation, 10-point dose-response from 10 μM. The method in brief:
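SW480 cells stably carrying Sp5-Luc reporter (eight TCF/LEF sites) plated at 4,000/well in 1% FBS medium with compound (10-point 1:3 series from 10 μM, 0.1% DMSO) overnight at 37 °C. BrightGlo luminescence normalized to DMSO; EC50 by four-parameter fit, else % inhibition at 10 μM.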

Take `c1cncc(-c2ccc3[nH]nc(-c4nc5c(-c6cccnc6)ccnc5[nH]4)c3n2)c1` [Compound 88, 5-(pyridin-3-yl)-3-(7-(pyridin-3-yl)-3H-imidazo[4,5-b]pyridin-2-yl)-1H-pyrazolo [4,3-b]pyridine]: in the experiment with SW480 colon cancer cells, the EC50 was over 10 µM and the inhibition at 10 µM came to 42.2%. Besides, in experiment [1], the Emax came out at 95% and the EC50 amounted to 300 nM. The compound also returned an EC50 in experiment [2] of 1.6 µM.
Regarding `Clc1ccc(-c2ccnc3[nH]c(-c4n[nH]c5ccc(-c6cncc(CN7CCCC7)c6)nc45)nc23)s1` [Compound 1049, 3-(7-(5-chlorothiophen-2-yl)-3H-imidazo[4,5-b]pyridin-2-yl)-5-(5-(pyrrolidin-1-ylmethyl)pyridin-3-yl)-1H-pyrazolo[4,3-b]pyridine], the EC50 in the experiment on SW480 colon cancer cells amounted to 2.75 µM; in experiment [1], 10 nM; in experiment [2], 7.7 µM. Moreover, the Emax in experiment [1] stood at 74%.
As for `Cc1ccncc1-c1ccc2[nH]nc(-c3nc4c(-c5ccsc5)ccnc4[nH]3)c2n1` [Compound 285, 5-(4-methylpyridin-3-yl)-3-(7-(thiophen-3-yl)-3H-imidazo[4,5-b]pyridin-2-yl)-1H-pyrazolo[4,3-b]pyridine], the results for the EC50 (in the experiment on SW480 colon cancer cells; in experiment [2]) were 0.944 µM and 0.865 µM, respectively. The Emax in experiment [1] was 33%.
For `COc1cccc(-c2ccnc3[nH]c(-c4n[nH]c5ccc(-c6cccnc6)nc45)nc23)c1` [Compound 994, 3-(7-(3-methoxyphenyl)-3H-imidazo[4,5-b]pyridin-2-yl)-5-(pyridin-3-yl)-1H-pyrazolo[4,3-b]pyridine], the figures for the EC50 (in the experiment with SW480 colon cancer cells; in experiment [1]; in experiment [2]) were 0.897 µM, 100 nM and 1.87 µM, respectively. The Emax in experiment [1] was 50%.
The matching figures for `Cc1ccc(-c2ccnc3[nH]c(-c4n[nH]c5ccc(-c6cncc(N)c6)nc45)nc23)s1` [Compound 395, 5-(3-(7-(5-methylthiophen-2-yl)-3H-imidazo[4,5-b]pyridin-2-yl)-1H-pyrazolo[4,3-b]pyridin-5-yl)pyridin-3-amine]: 0.084 µM, 100 nM, 0.047 µM and 118%.
For `CS(=O)(=O)NCc1cc(F)cc(-c2ccnc3[nH]c(-c4n[nH]c5ccc(-c6cncc(CNCc7ccccc7)c6)nc45)nc23)c1` [Compound 500, N-(3-(2-(5-(5-((Benzylamino)methyl)pyridin-3-yl)-1H-pyrazolo[4,3-b]pyridin-3-yl)-3H-imidazo[4,5-b]pyridin-7-yl)-5-fluorobenzyl)methanesulfonamide], the EC50 amounted to 8.84 µM in the experiment with SW480 colon cancer cells and 3.58 µM in experiment [2].
As to `O=C(Nc1cncc(-c2ccc3[nH]nc(-c4nc5c(N6CCCCC6)ccnc5[nH]4)c3n2)c1)C1CC1` [Compound 188, N-(5-(3-(7-(Piperidin-1-yl)-3H-imidazo[4,5-b]pyridin-2-yl)-1H-pyrazolo [4,3-b]pyridin-5-yl)pyridin-3-yl)cyclopropanecarboxamide], the EC50 with SW480 colon cancer cells stood at 3.91 µM; in experiment [2] it was 4 µM.
Turning to `CCNCc1cncc(-c2ccc3[nH]nc(-c4nc5c(-c6ccoc6)ccnc5[nH]4)c3n2)c1` [Compound 314, N-((5-(3-(7-(furan-3-yl)-3H-imidazo[4,5-b]pyridin-2-yl)-1H-pyrazolo[4,3-b]pyridin-5-yl)pyridin-3-yl)methyl)ethanamine], the results for the EC50 (with SW480 colon cancer cells; in experiment [2]) were 2.82 µM and 3.83 µM, respectively. In experiment [1], the Emax is 32%.
With `Fc1cccc(-c2ccnc3[nH]c(-c4n[nH]c5ccc(-c6cncc(OCCN7CCCC7)c6)nc45)nc23)c1` [Compound 514, 3-(7-(3-Fluorophenyl)-3H-imidazo[4,5-b]pyridin-2-yl)-5-(5-(2-(pyrrolidin-1-yl)ethoxy)pyridin-3-yl)-1H-pyrazolo[4,3-b]pyridine], the EC50 with SW480 colon cancer cells is 8.65 µM; in experiment [2] it was 4.11 µM.
With `Fc1ccccc1-c1ccnc2[nH]c(-c3n[nH]c4ccc(-c5ccccn5)nc34)nc12` [Compound 84, 3-(7-(2-Fluorophenyl)-3H-imidazo[4,5-b]pyridin-2-yl)-5-(pyridin-2-yl)-1H-pyrazolo[4,3-b]pyridine], in the experiment on SW480 colon cancer cells, the EC50 was over 10 µM and the inhibition at 10 µM is 0%. This compound had an EC50 in experiment [2] of 0.67 µM.
With `O=C(Nc1cncc(-c2ccc3[nH]nc(-c4nc5c(-c6ccsc6)ccnc5[nH]4)c3n2)c1)c1ccccc1` [Compound 291, N-(5-(3-(7-(Thiophen-3-yl)-3H-imidazo[4,5-b]pyridin-2-yl)-1H-pyrazolo [4,3-b]pyridin-5-yl)pyridin-3-yl)benzamide], in the experiment on SW480 colon cancer cells, the EC50 is over 10 µM and the inhibition at 10 µM was determined as 2%. Moreover, in experiment [2], the EC50 is 0.527 µM.
For `O=C(Nc1cncc(-c2ccc3[nH]nc(-c4nc5c(-c6cccs6)ccnc5[nH]4)c3n2)c1)C1CC1` [Compound 356, N-(5-(3-(7-(Thiophen-2-yl)-3H-imidazo[4,5-b]pyridin-2-yl)-1H-pyrazolo [4,3-b]pyridin-5-yl)pyridin-3-yl)cyclopropanecarboxamide] the same measures were over 10 µM, 12.4% and 2.28 µM.
`COc1cccc(-c2ccnc3[nH]c(-c4n[nH]c5ccc(-c6cncc(NC(=O)CC(C)(C)C)c6)nc45)nc23)c1` [Compound 1006, N-(5-(3-(7-(3-methoxyphenyl)-3H-imidazo[4,5-b]pyridin-2-yl)-1H-pyrazolo[4,3-b]pyridin-5-yl)pyridin-3-yl)-3,3-dimethylbutanamide]: the EC50 with SW480 colon cancer cells is 1.18 µM; in experiment [2], 1.55 µM.
On to `NC1CN(c2cncc(-c3ccc4[nH]nc(-c5nc6c(-c7ccc(Cl)s7)ccnc6[nH]5)c4n3)n2)C1` [Compound 1068, 1-(6-(3-(7-(5-Chlorothiophen-2-yl)-3H-imidazo[4,5-b]pyridin-2-yl)-1H-pyrazolo[4,3-b]pyridin-5-yl)pyrazin-2-yl)azetidin-3-amine], for which the EC50 in the experiment with SW480 colon cancer cells was over 10 µM; in experiment [2] it was 2.3 µM. Moreover, the inhibition at 10 µM with SW480 colon cancer cells turned out to be 17.8%.
The matching figures for `CC(C)(C)CC(=O)Nc1cncc(-c2ccc3[nH]nc(-c4nc5c(-c6ccccc6F)ccnc5[nH]4)c3n2)c1` [Compound 72, N-(5-(3-(7-(2-fluorophenyl)-3H-imidazo[4,5-b]pyridin-2-yl)-1H-pyrazolo [4,3-b]pyridin-5-yl)pyridin-3-yl)-3,3-dimethylbutanamide]: over 10 µM, 1.99 µM and 0%.
`COc1cccc(-c2ccnc3[nH]c(-c4n[nH]c5ccc(-c6cncc(NC(=O)C7CCCCC7)c6)nc45)nc23)c1` [Compound 1012, N-(5-(3-(7-(3-Methoxyphenyl)-3H-imidazo[4,5-b]pyridin-2-yl)-1H-pyrazolo [4,3-b]pyridin-5-yl)pyridin-3-yl)cyclohexanecarboxamide]: the values for the EC50 (with SW480 colon cancer cells; in experiment [2]) were 2.91 µM and 1.91 µM, respectively.
